# PubChem BioAssay AID1963966 (Molecular Pharmacology Branch, DTP, NCI, 2024)
# Test system: 935938-334-R-J1-PDC spheroids with HUVEC/MSC, viability
# Experiment: Anticancer human tumor 935938-334-R-J1-PDC patient-derived small intestine adenocarcinoma cell line growth inhibition [PI3K]
# Details: for IC50: curve of first compound; for viability, T/C: stronger effect = lower value
# Excerpt: Combinatorial screen of targeted agents with the PI3K inhibitors inavolisib, alpelisib, duvelisib, and copanlisib in multi-cell type tumor spheroids
# A high-throughput screen of multi-cell type tumor spheroids was designed to identify active combinations of targeted small molecules and PI3K pathway inhibitors. Complex spheroids include a stromal component modeled by human endothelial cells (HUVEC) and fibroblasts modeled by human mesenchymal stem cells (MSCs). The concentration ranges selected for each drug and investigational agent were based upon clinically achievable concentrations if the clinical Cmax of the agent was known.
# Compounds. The drugs and investigational agents: inavolisib (NSC800729), alpelisib (NSC765974), duvelisib (NSC772469), copanlisib (NSC816437), ipatasertib (NSC767898), afuresertib (NSC778305), talazoparib (NSC767125), sapanisertib (NSC764658), selumetinib (NSC741078), tovorafenib (DAY101, NSC766906), vemurafenib (NSC761431), ravoxertinib (NSC781343), sotorasib (NSC818433), MRTX1133 (NSC 836407), abemaciclib (NSC 768073), palbociclib (NSC758247), venetoclax (NSC 766270), SY5609 (NSC837396), enzalutamide (NSC755605), and darolutamide (NSC825331), were obtained from the National Cancer Institute (NCI) Developmental Therapeutics Program Chemical Repository. The FDA-approved anticancer drug set is available from the NCI Developmental Therapeutics Program. […] The stock solutions were prepared in dimethyl sulfoxide (DMSO, Sigma-Aldrich, St. Louis, MO, cat. D2650) at 800-fold the tested concentration and stored at -70 degrees C prior to their use. All drugs and investigational agents were tested over a range starting from a high concentration at or near the clinical Cmax and decreasing in half-log increments. If the clinical Cmax for an agent had not been determined, the highest concentration tested was 10 microM.
# Cell Culture. All cells were maintained in an incubator at 37 degrees C and 5% CO2 with 95% humidity. The PDC lines were cultured according to standard operating procedures established by the NCI PDMR (https://pdmr.cancer.gov/sops/default.htm). All PDCs were thawed and cultured in Matrigel-coated flasks prepared with a working solution of 1X Ham's F-12 nutrient mix, without supplementation (Invitrogen, Waltham, MA, cat. 11765054), 100 U/mL penicillin-streptomycin (Invitrogen, cat. 15140122), and 2.5% Matrigel (Corning Inc., Corning, NY, cat. 354248) for the first three passages. The 354836-022-R-J1-PDC, 475296-252-R-J1-PDC, and 997726-040-R-J2-PDC lines were cultured in 6A media, which includes advanced DMEM/F-12 (Thermo Fisher Scientific, cat. 12634028), 10 mM HEPES (Thermo Fisher Scientific, cat. 15630080), 1X GlutaMAX supplement (Thermo Fisher Scientific, cat. 35050061), 0.1 mg/mL primocin (InvivoGen, San Diego, CA, cat. ant-pm-2), 10% defined fetal bovine serum, heat inactivated (HyClone Laboratories Inc., Logan, UT, cat. SH30070.03HI), 50% L-WRN conditioned media (ATCC, cat. CRL-3276), 1.25 mM N-Acetyl-L-cysteine (Sigma-Aldrich, cat. A9165), 10 mM nicotinamide (Sigma-Aldrich, cat. N0636), 1X B-27 supplement (Thermo Fisher Scientific, cat. 17504044), 1X N-2 supplement (Thermo Fisher Scientific, cat. 17502048), and 10 microM Y-27632 dihydrochloride (Tocris Bioscience, Bristol, United Kingdom, cat. 1254). The 624824-186-R-J2-PDC line was cultured in 6C/Colon 1B media, which includes all 6A media components plus 50 ng/mL human EGF recombinant protein (Thermo Fisher Scientific, cat. PHG0311). […]
# [1] = second compound 0.00316 µM, first compound 0.000316 µM
# [2] = second compound 0.00316 µM, first compound 0.001 µM
# [3] = second compound 0.00316 µM, first compound 0.00316 µM
# [4] = second compound 0.00316 µM, first compound 0.01 µM
# [5] = second compound 0.00316 µM, first compound 0.0316 µM
# [6] = second compound 0.00316 µM, first compound 0.1 µM
# [7] = second compound 0.01 µM, first compound 0.000316 µM
# [8] = second compound 0.01 µM, first compound 0.001 µM
# [9] = second compound 0.01 µM, first compound 0.00316 µM
# [10] = second compound 0.01 µM, first compound 0.01 µM
# [11] = second compound 0.01 µM, first compound 0.0316 µM
# [12] = second compound 0.01 µM, first compound 0.1 µM
# [13] = second compound 0.0316 µM, first compound 0.000316 µM
# [14] = second compound 0.0316 µM, first compound 0.001 µM
# [15] = second compound 0.0316 µM, first compound 0.00316 µM
# [16] = second compound 0.0316 µM, first compound 0.01 µM
# [17] = second compound 0.0316 µM, first compound 0.0316 µM
# [18] = second compound 0.0316 µM, first compound 0.1 µM
# [19] = second compound 0.1 µM, first compound 0.000316 µM
# [20] = second compound 0.1 µM, first compound 0.001 µM
# [21] = second compound 0.1 µM, first compound 0.00316 µM
# [22] = second compound 0.1 µM, first compound 0.01 µM
# [23] = second compound 0.1 µM, first compound 0.0316 µM
# [24] = second compound 0.1 µM, first compound 0.1 µM
# [25] = second compound 0.316 µM, first compound 0.000316 µM
# [26] = second compound 0.316 µM, first compound 0.001 µM
# [27] = second compound 0.316 µM, first compound 0.00316 µM
# [28] = second compound 0.316 µM, first compound 0.01 µM
# [29] = second compound 0.316 µM, first compound 0.0316 µM
# [30] = second compound 0.316 µM, first compound 0.1 µM
# [31] = second compound 1 µM, first compound 0.000316 µM
# [32] = second compound 1 µM, first compound 0.001 µM
# [33] = second compound 1 µM, first compound 0.00316 µM
# [34] = second compound 1 µM, first compound 0.01 µM
# [35] = second compound 1 µM, first compound 0.0316 µM
# [36] = second compound 1 µM, first compound 0.1 µM
# 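Also: compound exposure lasted seven days before viability was read.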
# 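For viability, T/C in this document: percent of vehicle DMSO treated spheroid viability so 100% = untreated.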
compound,measurement,setting,value
CC(=O)c1c(C)c2cnc(Nc3ccc(N4CCNCC4)cn3)nc2n(C2CCCC2)c1=O + CC(Nc1ccc2c(c1)OCCn1cc(N3C(=O)OCC3C(F)F)nc1-2)C(N)=O,IC50,second compound 0.00316 µM,0.0623 µM
same,IC50,second compound 0.01 µM,0.0617 µM
same,IC50,second compound 0.0316 µM,0.059 µM
same,IC50,second compound 0.1 µM,0.0472 µM
same,IC50,second compound 0.316 µM,0.0499 µM
same,IC50,second compound 1 µM,0.0262 µM
same,"viability, T/C",[1],82.7%
same,"viability, T/C",[2],66%
same,"viability, T/C",[3],97.2%
same,"viability, T/C",[4],90.4%
same,"viability, T/C",[5],95.5%
same,"viability, T/C",[6],24.6%
same,"viability, T/C",[7],81.3%
same,"viability, T/C",[8],70.7%
same,"viability, T/C",[9],92.6%
same,"viability, T/C",[10],86.7%
same,"viability, T/C",[11],82.7%
same,"viability, T/C",[12],26.5%
same,"viability, T/C",[13],67.7%
same,"viability, T/C",[14],65.7%
same,"viability, T/C",[15],112%
same,"viability, T/C",[16],81.4%
same,"viability, T/C",[17],98.2%
same,"viability, T/C",[18],20.3%
same,"viability, T/C",[19],76.2%
same,"viability, T/C",[20],81.7%
same,"viability, T/C",[21],72.4%
same,"viability, T/C",[22],91.3%
same,"viability, T/C",[23],66.4%
same,"viability, T/C",[24],19.3%
same,"viability, T/C",[25],63.5%
same,"viability, T/C",[26],65.1%
same,"viability, T/C",[27],74.8%
same,"viability, T/C",[28],77.2%
same,"viability, T/C",[29],70.7%
same,"viability, T/C",[30],19.5%
same,"viability, T/C",[31],47.9%
same,"viability, T/C",[32],57.5%
same,"viability, T/C",[33],82.2%
same,"viability, T/C",[34],67.3%
same,"viability, T/C",[35],47.3%
same,"viability, T/C",[36],20.6%
CC(C)n1nc(-c2ccc3oc(N)nc3c2)c2c(N)ncnc21 + CC(Nc1ccc2c(c1)OCCn1cc(N3C(=O)OCC3C(F)F)nc1-2)C(N)=O,IC50,second compound 0.00316 µM,0.0822 µM
same,IC50,second compound 0.01 µM,> 0.1 µM
same,IC50,second compound 0.0316 µM,0.0646 µM
same,IC50,second compound 0.1 µM,0.0441 µM
same,IC50,second compound 0.316 µM,0.0374 µM
same,IC50,second compound 1 µM,0.00833 µM
same,"viability, T/C",[1],102%
same,"viability, T/C",[2],113%
same,"viability, T/C",[3],80.9%
same,"viability, T/C",[4],87.4%
same,"viability, T/C",[5],76.6%
same,"viability, T/C",[6],43.5%
same,"viability, T/C",[7],112%
same,"viability, T/C",[8],107%
same,"viability, T/C",[9],109%
same,"viability, T/C",[10],62.2%
same,"viability, T/C",[11],76.9%
same,"viability, T/C",[12],51.9%
same,"viability, T/C",[13],100%
same,"viability, T/C",[14],99.1%
same,"viability, T/C",[15],94.6%
same,"viability, T/C",[16],84.4%
same,"viability, T/C",[17],83.8%
same,"viability, T/C",[18],31.6%
same,"viability, T/C",[19],102%
same,"viability, T/C",[20],96.3%
same,"viability, T/C",[21],101%
same,"viability, T/C",[22],86.6%
same,"viability, T/C",[23],57.3%
same,"viability, T/C",[24],32.6%
same,"viability, T/C",[25],78.2%
same,"viability, T/C",[26],91%
same,"viability, T/C",[27],61.5%
same,"viability, T/C",[28],61%
same,"viability, T/C",[29],61.1%
same,"viability, T/C",[30],32.3%
same,"viability, T/C",[31],50.6%
same,"viability, T/C",[32],63.5%
same,"viability, T/C",[33],52%
same,"viability, T/C",[34],49.7%
same,"viability, T/C",[35],35.2%
same,"viability, T/C",[36],31.3%
CCCS(=O)(=O)Nc1ccc(F)c(C(=O)c2c[nH]c3ncc(-c4ccc(Cl)cc4)cc23)c1F + CC(Nc1ccc2c(c1)OCCn1cc(N3C(=O)OCC3C(F)F)nc1-2)C(N)=O,IC50,second compound 0.00316 µM,6.91 µM
same,IC50,second compound 0.01 µM,7.58 µM
same,IC50,second compound 0.0316 µM,7.08 µM
same,IC50,second compound 0.1 µM,6.88 µM
same,IC50,second compound 0.316 µM,5.83 µM
same,IC50,second compound 1 µM,5.37 µM
same,"viability, T/C",[5],100%
same,"viability, T/C",[6],101%
same,"viability, T/C","second compound 0.00316 µM, first compound 0.316 µM",162%
same,"viability, T/C","second compound 0.00316 µM, first compound 1 µM",103%
same,"viability, T/C","second compound 0.00316 µM, first compound 3.16 µM",92.6%
same,"viability, T/C","second compound 0.00316 µM, first compound 10 µM",30.3%
same,"viability, T/C",[11],136%
same,"viability, T/C",[12],89.5%
same,"viability, T/C","second compound 0.01 µM, first compound 0.316 µM",136%
same,"viability, T/C","second compound 0.01 µM, first compound 1 µM",103%
same,"viability, T/C","second compound 0.01 µM, first compound 3.16 µM",118%
same,"viability, T/C","second compound 0.01 µM, first compound 10 µM",28.9%
same,"viability, T/C",[17],92.3%
same,"viability, T/C",[18],101%
same,"viability, T/C","second compound 0.0316 µM, first compound 0.316 µM",98.3%
same,"viability, T/C","second compound 0.0316 µM, first compound 1 µM",110%
same,"viability, T/C","second compound 0.0316 µM, first compound 3.16 µM",100%
same,"viability, T/C","second compound 0.0316 µM, first compound 10 µM",28.6%
same,"viability, T/C",[23],93.6%
same,"viability, T/C",[24],78.1%
same,"viability, T/C","second compound 0.1 µM, first compound 0.316 µM",104%
same,"viability, T/C","second compound 0.1 µM, first compound 1 µM",118%
same,"viability, T/C","second compound 0.1 µM, first compound 3.16 µM",88.5%
same,"viability, T/C","second compound 0.1 µM, first compound 10 µM",31.3%
same,"viability, T/C",[29],84.2%
same,"viability, T/C",[30],92.4%
same,"viability, T/C","second compound 0.316 µM, first compound 0.316 µM",84.6%
same,"viability, T/C","second compound 0.316 µM, first compound 1 µM",102%
same,"viability, T/C","second compound 0.316 µM, first compound 3.16 µM",78.9%
same,"viability, T/C","second compound 0.316 µM, first compound 10 µM",24.6%
same,"viability, T/C",[35],72.5%
same,"viability, T/C",[36],66.9%
same,"viability, T/C","second compound 1 µM, first compound 0.316 µM",86.5%
same,"viability, T/C","second compound 1 µM, first compound 1 µM",62.9%
same,"viability, T/C","second compound 1 µM, first compound 3.16 µM",77%
same,"viability, T/C","second compound 1 µM, first compound 10 µM",22.9%
